From patent publication US20230077362A1 (CORTEVA AGRISCIENCE LLC, priority 2019, published 2023) come the findings set out here.

Assay [1] has as its system Cabbage Looper (Trichoplusia ni) ("CL"), second instar larvae. The experiment in a line: Bioassay on cabbage looper (CL), 128-well diet tray assay. The following applies: Trichoplusia ni, read-out: CL (Biological Results, rating). The assay is classed as in vivo. The method, boiled down: (§1)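 Each value represents average percent mortality from eight wells. Larvae were kept in clear-covered trays at 25° C. for five to seven days on a 14-hour light, 10-hour dark schedule before scoring.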

The subject of assay [2] is Beet Armyworm (Spodoptera exigua) ("BAW"), second instar larvae. The experiment in a line: Bioassay on beet armyworm (BAW), 128-well diet tray assay. In kind it is in vivo. The following applies: Spodoptera exigua, read-out: BAW (Biological Results, rating). The gist of the method:
as §1

For the compound `Cc1ccc(COCC(F)(F)F)c(N2C(=O)CS/C2=N\C(=O)Nc2ccc(-c3ncn(-c4ccc(OC(F)(F)F)cc4)n3)cc2C(F)(F)F)c1` [Compound J165, (Z)-1-(3-(5-Methyl-2-((2,2,2-trifluoroethoxy)methyl)phenyl)-4-oxothiazolidin-2-ylidene)-3-(4-(1-(4-(trifluoromethoxy)phenyl)-1H-1,2,4-triazol-3-yl)-2-(trifluoromethyl)phenyl)urea], the pest or weed control at 50 µg/cm2 in assay [1] and in assay [2] was 50 to 100% in each case.
Take `CC(C)c1ccc(N(C)C)cc1N1C(=O)CS/C1=N\C(=O)Nc1ccc(-c2ncn(-c3ccc(OC(F)(F)F)cc3)n2)cc1Cl` [Compound J166, (Z)-1-(2-Chloro-4-(1-(4-(trifluoromethoxy)phenyl)-1H-1,2,4-triazol-3-yl)phenyl)-3-(3-(5-(dimethylamino)-2-isopropylphenyl)-4-oxothiazolidin-2-ylidene)urea]: the pest or weed control at 50 µg/cm2 in assay [1] and in assay [2] was 50 to 100% each time.
Turning to `Cc1ccc(COCC(F)(F)F)c(N2C(=O)CS/C2=N\C(=O)Nc2ccc(-c3ncn(-c4ccc(C(F)(F)F)cc4)n3)cc2C)c1` [Compound J167, (Z)-1-(3-(5-Methyl-2-((2,2,2-trifluoroethoxy)methyl)phenyl)-4-oxothiazolidin-2-ylidene)-3-(2-methyl-4-(1-(4-(trifluoromethyl)phenyl)-1H-1,2,4-triazol-3-yl)phenyl)urea], the pest or weed control at 50 µg/cm2 in assay [1] and in assay [2] was 50 to 100% throughout.
As to `COCOc1cc(-c2ncn(-c3ccc(OC(F)(F)F)cc3)n2)ccc1NC(=O)/N=C1\SCC(=O)N1c1cc(C)ccc1C(C)C` [Compound J170, (Z)-1-(3-(2-Isopropyl-5-methylphenyl)-4-oxothiazolidin-2-ylidene)-3-(2-(methoxymethoxy)-4-(1-(4-(trifluoromethoxy)phenyl)-1H-1,2,4-triazol-3-yl)phenyl)urea], the pest or weed control at 50 µg/cm2 in assay [1] and in assay [2] was 50 to 100% each time.
In the case of `COCOc1cc(-c2ncn(-c3ccc(OC(F)(F)F)cc3)n2)ccc1NC(=O)/N=C1\SCC(=O)N1c1cc(C)ccc1OCC(F)(F)F` [Compound J171, (Z)-1-(2-(Methoxymethoxy)-4-(1-(4-(trifluoromethoxy)phenyl)-1H-1,2,4-triazol-3-yl)phenyl)-3-(3-(5-methyl-2-(2,2,2-trifluoroethoxy)phenyl)-4-oxothiazolidin-2-ylidene)urea], the pest or weed control at 50 µg/cm2 in assay [1] and in assay [2] was 50 to 100% in each case.
Take `COCOc1cc(-c2ncn(-c3ccc(OC(F)(F)F)cc3)n2)ccc1NC(=O)/N=C1\SCC(=O)N1c1cc(C)ccc1COCC(F)(F)F` [Compound J173, (Z)-1-(2-(Methoxymethoxy)-4-(1-(4-(trifluoromethoxy)phenyl)-1H-1,2,4-triazol-3-yl)phenyl)-3-(3-(5-methyl-2-((2,2,2-trifluoroethoxy)methyl)phenyl)-4-oxothiazolidin-2-ylidene)urea]: the pest or weed control at 50 µg/cm2 in assay [1] and in assay [2] was 50 to 100% throughout.
Regarding `CCOC(C)c1ccc(C)cc1N1C(=O)CS/C1=N\C(=O)Nc1ccc(-c2ncn(-c3ccc(OC(F)(F)F)cc3)n2)cc1OCOC` (stereo not shown) [Compound J174, (Z)-1-(3-(2-(1-Ethoxyethyl)-5-methylphenyl)-4-oxothiazolidin-2-ylidene)-3-(2-(methoxymethoxy)-4-(1-(4-(trifluoromethoxy)phenyl)-1H-1,2,4-triazol-3-yl)phenyl)urea], the pest or weed control at 50 µg/cm2 in assay [1] and in assay [2] was 50 to 100% each time.
`Cc1ccc(C(C)C)c(N2C(=O)CS/C2=N\C(=O)Nc2ccc(-c3ncn(-c4ccc(OC(F)(F)F)cc4)n3)cc2O)c1` [Compound J175, (Z)-1-(2-hydroxy-4-(1-(4-(trifluoromethoxy)phenyl)-1H-1,2,4-triazol-3-yl)phenyl)-3-(3-(2-isopropyl-5-methylphenyl)-4-oxothiazolidin-2-ylidene)urea]: the pest or weed control at 50 µg/cm2 in assay [1] and in assay [2] was 50 to 100% in each case.
Turning to `Cc1ccc(COCC(F)(F)F)c(N2C(=O)CS/C2=N\C(=O)Nc2ccc(-c3ncn(-c4ccc(OC(F)(F)F)cc4)n3)cc2O)c1` [Compound J178, (Z)-1-(2-Hydroxy-4-(1-(4-(trifluoromethoxy)phenyl)-1H-1,2,4-triazol-3-yl)phenyl)-3-(3-(5-methyl-2-((2,2,2-trifluoroethoxy)methyl)phenyl)-4-oxothiazolidin-2-ylidene)urea], the pest or weed control at 50 µg/cm2 in assay [1] and in assay [2] was 50 to 100% throughout.
With `CCOC(C)c1ccc(C)cc1N1C(=O)CS/C1=N\C(=O)Nc1ccc(-c2ncn(-c3ccc(OC(F)(F)F)cc3)n2)cc1O` (stereo not shown) [Compound J179, (Z)-1-(3-(2-(1-Ethoxyethyl)-5-methylphenyl)-4-oxothiazolidin-2-ylidene)-3-(2-hydroxy-4-(1-(4-(trifluoromethoxy)phenyl)-1H-1,2,4-triazol-3-yl)phenyl)urea], the pest or weed control at 50 µg/cm2 in assay [1] and in assay [2] was 50 to 100% each time.
With `CN(C)c1ccc(C(F)(F)F)c(N2C(=O)CS/C2=N\C(=O)Nc2ccc(-c3ncn(-c4ccc(OC(F)(F)F)cc4)n3)cc2F)c1` [Compound J182, (Z)-1-(3-(5-(Dimethylamino)-2-(trifluoromethyl)phenyl)-4-oxothiazolidin-2-ylidene)-3-(2-fluoro-4-(1-(4-(trifluoromethoxy)phenyl)-1H-1,2,4-triazol-3-yl)phenyl)urea], the pest or weed control at 50 µg/cm2 in assay [1] and in assay [2] was 50 to 100% in each case.
Consider `CN(C)c1ccc(OCCC(F)(F)F)c(N2C(=O)CS/C2=N\C(=O)Nc2ccc(-c3ncn(-c4ccc(C(F)(F)F)cc4)n3)cc2F)c1` [Compound J184, (Z)-1-(3-(5-(Dimethylamino)-2-(3,3,3-trifluoropropoxy)phenyl)-4-oxothiazolidin-2-ylidene)-3-(2-fluoro-4-(1-(4-(trifluoromethyl)phenyl)-1H-1,2,4-triazol-3-yl)phenyl)urea], for which the pest or weed control at 50 µg/cm2 in assay [1] and in assay [2] was 50 to 100% throughout.
Take `Cc1ccc(COCC(F)(F)F)c(N2C(=O)CS/C2=N\C(=O)Nc2ccc(-c3ncn(-c4ccc(SC(F)(F)F)cc4)n3)cc2F)c1` [Compound J186, (Z)-1-(2-Fluoro-4-(1-(4-((trifluoromethyl)thio)phenyl)-1H-1,2,4-triazol-3-yl)phenyl)-3-(3-(5-methyl-2-((2,2,2-trifluoroethoxy)methyl)phenyl)-4-oxothiazolidin-2-ylidene)urea]: the pest or weed control at 50 µg/cm2 in assay [1] and in assay [2] was 50 to 100% throughout.
For the compound `COC(C)c1ccc(C)cc1N1C(=O)CS/C1=N\C(=O)Nc1ccc(-c2ncn(-c3ccc(SC(F)(F)F)cc3)n2)cc1F` (stereo not shown) [Compound J187, (Z)-1-(2-Fluoro-4-(1-(4-((trifluoromethyl)thio)phenyl)-1H-1,2,4-triazol-3-yl)phenyl)-3-(3-(2-(1-methoxyethyl)-5-methylphenyl)-4-oxothiazolidin-2-ylidene)urea], the pest or weed control at 50 µg/cm2 in assay [1] and in assay [2] was 50 to 100% in each case.
On to `CC(=O)N(C)c1ccc(C(C)C)c(N2C(=O)CS/C2=N\C(=O)Nc2ccc(-c3ncn(-c4ccc(OC(F)(F)F)cc4)n3)cc2F)c1` [Compound J188, (Z)-N-(3-(2-(((2-Fluoro-4-(1-(4-(trifluoromethoxy)phenyl)-1H-1,2,4-triazol-3-yl)phenyl)carbamoyl)imino)-4-oxothiazolidin-3-yl)-4-isopropylphenyl)-N-methylacetamide], for which the pest or weed control at 50 µg/cm2 in assay [1] and in assay [2] was 50 to 100% each time.
`CCOCc1ccc(C)cc1N1C(=O)CS/C1=N\C(=O)Nc1ccc(-c2ncn(-c3ccc(SC(F)(F)F)cc3)n2)cc1F` [Compound J195, (Z)-1-(3-(2-(Ethoxymethyl)-5-methylphenyl)-4-oxothiazolidin-2-ylidene)-3-(2-fluoro-4-(1-(4-((trifluoromethyl)thio)phenyl)-1H-1,2,4-triazol-3-yl)phenyl)urea]: the pest or weed control at 50 µg/cm2 in assay [1] and in assay [2] was 50 to 100% in each case.
Turning to `O=C(/N=C1\SCC(=O)N1c1ccccc1N1CCCCC1)Nc1ccc(-c2ncn(-c3ccc(OC(F)(F)F)cc3)n2)cc1F` [Compound J198, (Z)-1-(2-Fluoro-4-(1-(4-(trifluoromethoxy)phenyl)-1H-1,2,4-triazol-3-yl)phenyl)-3-(4-oxo-3-(2-(piperidin-1-yl)phenyl)thiazolidin-2-ylidene)urea], the pest or weed control at 50 µg/cm2 in assay [1] and in assay [2] was 50 to 100% in each case.
For `CC(=O)N(C)c1ccc(C(C)C)c(N2C(=O)CS/C2=N\C(=O)Nc2ccc(-c3ncn(-c4ccc(OC(F)(F)F)cc4)n3)cc2C)c1` [Compound J199, (Z)-N-(4-Isopropyl-3-(2-(((2-methyl-4-(1-(4-(trifluoromethoxy)phenyl)-1H-1,2,4-triazol-3-yl)phenyl)carbamoyl)imino)-4-oxothiazolidin-3-yl)phenyl)-N-methylacetamide], the pest or weed control at 50 µg/cm2 in assay [1] and in assay [2] was 50 to 100% in each case.
For `CCN(C(C)=O)c1ccc(C(C)C)c(N2C(=O)CS/C2=N\C(=O)Nc2ccc(-c3ncn(-c4ccc(OC(F)(F)F)cc4)n3)cc2C)c1` [Compound J200, (Z)-N-Ethyl-N-(4-isopropyl-3-(2-(((2-methyl-4-(1-(4-(trifluoromethoxy)phenyl)-1H-1,2,4-triazol-3-yl)phenyl)carbamoyl)imino)-4-oxothiazolidin-3-yl)phenyl)acetamide], the pest or weed control at 50 µg/cm2 in assay [1] and in assay [2] was 50 to 100% in each case.
As for `Cc1ccc(COCC(F)(F)F)c(N2C(=O)CS/C2=N\C(=O)Nc2ccc(-c3ncn(-c4ccc(SC(F)(F)F)cc4)n3)cc2C)c1` [Compound J204, (Z)-1-(3-(5-Methyl-2-((2,2,2-trifluoroethoxy)methyl)phenyl)-4-oxothiazolidin-2-ylidene)-3-(2-methyl-4-(1-(4-((trifluoromethyl)thio)phenyl)-1H-1,2,4-triazol-3-yl)phenyl)urea], the pest or weed control at 50 µg/cm2 in assay [1] and in assay [2] was 50 to 100% each time.
